According to patent publication US20200397894A1, “COMPOSITIONS AND METHODS FOR TREATING CANCER” (University of Virginia Patent Foundation, priority 2016, published 2020):

How the values were obtained:
DM93 cells = assay: Clonogenic survival assay; assay type: cell-based, human
Protocol: (§1) Cell survival following CDT2 depletion or pevonedistat treatment was assessed by clonogenic survival assay, preformed in triplicates. 72 hours following transfection with si-GL2 or si-CDT2, cells were trypsinized, counted, and seeded in 60 mm dishes. For pevonedistat treatments, cells were counted and seeded in 60 mm dishes and treated 24 hours later with various doses of pevonedistat or with DMSO. Cells were cultured for two weeks and were subsequently washed in cold PBS, fixed in cold methanol for 10 minutes, and stained with crystal violet (0.5%) for 10 minutes. Plates were washed with water, dried, and pictures were captured using IMAGE LAB™ software (BioRad Laboratories, Inc., Hercules, Calif., United States of America). Quantification of colonies was performed using QUANTITY ONE® software (BioRad Laboratories, Inc., Hercules, Calif., United States of America). Results are represented as mean±s.e.m. of triplicates normalized to the corresponding DMSO-treated or si-GL2 transfected controls.

VMM39 cells = assay: Clonogenic survival assay; assay type: cell-based, human
Protocol: as §1

DM331 xenografts = assay: Melanoma flank xenograft in nude mice; assay type: in vivo; details: vs. vehicle; PLX4720 in rodent diet 417 mg/kg
Protocol: (§2) All animal experiments were performed after approval of animal protocols by the Animal Care and Use Committee (ACUC) of the University of Virginia. Animals were housed and handled in accordance with the guidelines of the ACUC of the University of Virginia. The effect of pevonedistat on melanoma growth was tested in flank xenograft models. Foxn1^nu (20-25 g body weight, 4-5 weeks old females) athymic nude immune-deficient mice (Harlan Laboratories, now Envigo, Indianapolis, Ind., United States of America) were used in this study. Pevonedistat was dissolved in sterile 10% DMSO containing PBS (stock 1 mM), filtered, and stored in −20° C. until use. DM93, VMM39, SLM2, DM331, or SK-MEL-24 (2×10^6) melanoma cells were implanted in both flanks of immune-deficient mice (n=12 mice per group) and tumor growth was monitored until they grow to an average volume of 150-200 mm^3, and mice were randomized into groups for treatment. Animals were administered 0.2 mL pevonedistat solution (30 or 60 mg/kg body weight as indicated) intraperitoneally on a schedule of two cycles of five-day treatment followed by five treatment-free days, for 3 weeks, or more as indicated. Control animals were treated with an equal volume of sterile vehicle (10% DMSO in PBS). Where indicated, mice received control rodent diet, or rodent diet with 417 mg/kg PLX4720 (Research Diets, Inc. New Brunswick, N.J., United States of America). Tumors were measured with an electronic caliper every other day for 3 weeks post-drug injection. Animal weight was recorded once a week to detect any weight loss due to the toxicity of drug treatment or tumor burden. At the end of the treatment, animals were euthanized and tumors harvested for further processing. The results shown are mean tumor volumes±s.e.m; *p<0.05, **p<0.01, ***p<0.001.

DM93 melanoma xenografts = assay: Melanoma flank xenograft in nude mice; assay type: in vivo
Protocol: as §2

SLM2 xenografts = assay: Melanoma flank xenograft in nude mice; assay type: in vivo; details: 60 mg/kg; p=2.3×10^−3
Protocol: as §2

VMM39 xenografts = assay: Melanoma flank xenograft in nude mice; assay type: in vivo; details: 60 mg/kg; p=1.8×10^−5
Protocol: as §2

HNSCC cells = assay: Colony formation and CYQUANT cell viability assays; assay type: cell-based; details: Homo sapiens
Protocol: HNSCC cells were transfected with si-RNA (48 hours prior to first count) or treated with pevonedistat (24 hours prior to first count). 8×10^5 cells were seeded in 60 mm plates and cell proliferation was determined by staining with trypan blue and counting by COUNTESS™ Automated Cell Counter (INVITROGEN™, Carlsbad, Calif., United States of America). Depending on the cell growth rate, cell counts were recorded either every 24 or 48 hours, and growth curves were established.
The effect of pevonedistat treatment or transient silencing of CDT2, geminin, or EMI1 on cell proliferation or on radiation sensitivity was tested using clonogenic survival assays. Cells were transfected with the appropriate si-RNA 48 hours prior to seeding. Cells were then counted using COUNTESS™ Automated Cell Counter (INVITROGEN™, Carlsbad, Calif., United States of America) and were seeded at 15,000 cells/plate in 60 mm dishes. Cells were irradiated 24 hours after seeding with various doses and were cultured for 7-10 days. […] QUANTITY ONE® software (BioRad Laboratories, Inc., Hercules, Calif., United States of America) was used to quantify the number of colonies and survival curves were established based on the linear quadratic model, using the formula S=e^−αD-βD2; where S represents the surviving fraction and D the dose of irradiation. […]

[1] = system: cullin neddylation in Cal27 or FaDu cells; assay: Immunoblotting of cullin neddylation; assay type: cell-based, human; details: 50 nM pevonedistat, 24 or 48 hours
Protocol: HNSCC cells were lysed using radio-immunoprecipitation assay (RIPA) lysis buffer (50 mM Tris, pH 8.0; 150 mM NaCl, 1% NP-40; 0.5% sodium deoxycolate; 0.1% SDS; 1 mM Benzamidin-HCl; 0.5 μg/ml Leupeptin; 0.5 μg/ml Aprotinin; 1 μg/ml pepstatin; 20 mM NaF; 20 mM Na3VO4). Equal amounts of protein were electrophoretically separated in a polyacrylamide 8-12% gel (Bio-Rad Laboratories, Inc., Hercules, Calif., United States of America), trans-blotted to a nitrocellulose membrane, and incubated with primary antibodies for one hour at room temperature or overnight at 4° C. The immunoblot signals were detected by enhanced chemiluminescence (EMD Millipore Corporation, Billerica, Mass., United States of America).

For `NS(=O)(=O)OCC1CC(n2ccc3c(NC4CCc5ccccc54)ncnc32)CC1O` [pevonedistat, ((1S,2S,4R)-4-(4-((1S)-2,3-Dihydro-H-inden-1-ylamino)-7H-pyrrolo(2,3-d)pyrimidin-7-yl)-2-hydroxycyclopentyl)methyl sulphamate], the “drug concentration inhibiting proliferation (clonogenic survival)” value (DM93 cells) was 100 nM, the “drug concentration inhibiting proliferation (clonogenic survival)” value (VMM39 cells) was 50 nM and the “growth of DM331 xenografts” value (DM331 xenografts) was “inhibited”. The “growth of sg-control DM93 xenografts” value (DM93 melanoma xenografts; 30 mg/kg, p=0.009) was “significantly inhibited the growth”, the “growth of sg-p21-1 DM93 xenografts” value (DM93 melanoma xenografts; 30 mg/kg, p=0.092) was “failed to inhibit the growth” and the “growth of sg-SET8-1 DM93 xenografts” value (DM93 melanoma xenografts; 30 mg/kg, p=0.66) was “failed to inhibit the growth”. For the same compound, the tumor regression (DM93 melanoma xenografts; 30 or 60 mg/kg) was “did not result in tumor regression”, the “tumor regrowth after cessation of treatment” value (DM93 melanoma xenografts; either drug concentration, up to 10 days following cessation) was “not detectable” and the tolerability (DM93 melanoma xenografts; nude mice, 30 or 60 mg/kg, 5 days on/5 days off, two cycles) was “well tolerated”. The “growth of SLM2 xenografts” value (SLM2 xenografts) was “significantly inhibited the growth”, the “growth of VMM39 xenografts” value (VMM39 xenografts) was “significantly inhibited the growth” and the IC50 (HNSCC cells) was roughly 50 nM. The cullin neddylation [1] was “inhibited cullin neddylation”.
